Patent publication US5736565A, “Therapeutic compounds suitable for the treatment of diseases connected with glutathione deficiency, process for their preparation, and pharmaceutical compositions containing same” (Prospa B.V., priority 1992, dated 1998)
Entries after “also recorded” stand apart in the source; their conditions may differ. Where two headings read alike, the source gives them in different places. Peptide text beside a SMILES is read from it.

What was measured:
[1] = test system: glutathione (GSH) in hepatocytes; assay: Tests in vitro: glutathione content of isolated rat hepatocytes; assay type: cell-based; settings: for activity at 250 µM / activity at 500 µM / activity at 1000 µM / activity at 2500 µM / activity at 5000 µM: read-out: Glutathione concentrations; for activity at 1000 µM: DEM + 1.0 mM; for activity at 5000 µM: DEM + 5.0 mM
Experimental: The experimental model envisages the isolation of hepatic parenchymal cells of rats following perfusion, with collagenase, of the isolated organ. Prior to each test, hepatocytes vitality was quantified by Tripan Blue […]. Only the cells with a vitality greater than 90% were utilized. Hepatocytes were resuspended, at a concentration of 10^6 cells/ml, in a saline medium (Krebs Heinseleit) at ph 7.4, and then placed into rotating flasks in the presence of O2 (95%) and CO2 (5%), at 37° C. Cells keep vital for 5-6 hours at least.
[…] The cells were then washed for 30 min. and incubated with various concentrations of the test substance (from 0.25 to 5 mM).
By this experimental model it is possible to test the effect of the substance by evaluating the hepatic functionality determined by measurements of the vitality (Tables Nos. 3, 4, and 5) and of glutathione content (Tables 6, 7, and 8).
In the Tables 3-8 herein below reported, the controls are represented by normal hepatocytes, not treated either with DEM or with compound (I).

DCP toxicity in the rat = assay: Test No. 4: dichloropropane (DCP) intoxication in vivo, death rate and signs; settings: DCP-treated rats
Experimental: A test was carried out in vivo on four groups of four rats each, using, as a toxic substance, dichloropropane (DCP), the main constituent of several solvents. DCP is noxious both by ingestion and inhalation and has a notable toxicity to the liver, mediated by an almost total depletion of thiol groups, including those of GSH.
The experimental model involves the study of the effect of DCP toxicity in the rat, in respect of glutathione (GSH) concentration in the main target tissue: the liver.
Tests were carried out on four groups of rats. The first group of animals was administered 2 ml DCP/kg dissolved in oil (40% v/v) per os. Twenty-four hours after DCP administration, blood samples were taken for SGPT measurement, while the animals were sacrificed; small portions of liver were then excised and immediately deproteinized by homogenization in 6% PCA. The chromatographic analyses of GSH and GSSG (oxidized glutathione) were performed.
The second group of animals was treated with the test drug (600 mg/kg i.p.) two hours after DCP administration. The third and fourth groups were treated with N-acetyl-cysteine (NAC) (250 mg/kg i.p.) and, respectively, with glutathione (Tationil^R) (600 mg/kg i.p.).

[2] = test system: urethane-induced tumours of the lungs; assay: Urethane-induced tumours of the lungs in albino Swiss mice; assay type: in vivo
Experimental: Male albino adult Swiss mice (20-25 g) were used. All animals were inoculated i.p. with urethane. The animals were treated with PSC (600 mg/kg) 15 days prior to and after inoculation. Once the treatment was completed, the animals were sacrificed, their lungs excised and subjected to necrohistologic examination.

[3] = Rattus norvegicus, Hepatocyte, 0 h, 0 time
[4] = Rattus norvegicus, Hepatocyte, 0.5 h, 30 min
[5] = Rattus norvegicus, Hepatocyte, 1 h, 1 hr
[6] = Rattus norvegicus, Hepatocyte, 2 h, 2 hrs
[7] = Rattus norvegicus, Hepatocyte, 4 h, 4 hrs
[8] = 600 mg/kg i.p., 30 days' treatment, 15 days after urethane i.p.

SMILES: CC(=O)SC[C@H](NC(=O)[C@@H]1CCC(=O)N1)C(=O)O [PSC, 2-(S)-(2-pyrrolidone-5-(S)-carbonyl amido)-3-acetylmercapto propionic acid] (HELM PEPTIDE1{[Glp].C}|PEPTIDE2{[ac]}$PEPTIDE1,PEPTIDE2,2:R3-1:R2$$$V2.0)
- increase in the GSH content ([1]; DEM-pretreated hepatocytes, 2.5 and 5 mM): greater than 170%
- activity at 250 µM ([1]; Rattus norvegicus, Hepatocyte, 0 h, DEM + 0.25 mM, 0 time): 28%
- activity at 500 µM ([1]; Rattus norvegicus, Hepatocyte, 0 h, DEM + 0.50 mM, 0 time): 28.4%
- activity at 1000 µM [1, 3]: 25.8%
- activity at 2500 µM ([1]; Rattus norvegicus, Hepatocyte, 0 h, DEM + 2.5 mM, 0 time): 23.9%
- activity at 5000 µM [1, 3]: 26.6%
- activity at 250 µM ([1]; Rattus norvegicus, Hepatocyte, 0 h, no DEM, 0.25 mM, 0 time): 104%
- activity at 500 µM ([1]; Rattus norvegicus, Hepatocyte, 0 h, no DEM, 0.50 mM, 0 time): 107%
- activity at 2500 µM ([1]; Rattus norvegicus, Hepatocyte, 0 h, no DEM, 2.5 mM, 0 time): 99.5%
- activity at 250 µM ([1]; Rattus norvegicus, Hepatocyte, 0.5 h, DEM + 0.25 mM, 30 min): 42.8%
- activity at 500 µM ([1]; Rattus norvegicus, Hepatocyte, 0.5 h, DEM + 0.50 mM, 30 min): 45.7%
- activity at 1000 µM [1, 4]: 52.7%
- activity at 2500 µM ([1]; Rattus norvegicus, Hepatocyte, 0.5 h, DEM + 2.5 mM, 30 min): 61.1%
- activity at 5000 µM [1, 4]: 69.4%
- activity at 250 µM ([1]; Rattus norvegicus, Hepatocyte, 0.5 h, no DEM, 0.25 mM, 30 min): 117%
- activity at 500 µM ([1]; Rattus norvegicus, Hepatocyte, 0.5 h, no DEM, 0.50 mM, 30 min): 144%
- activity at 2500 µM ([1]; Rattus norvegicus, Hepatocyte, 0.5 h, no DEM, 2.5 mM, 30 min): 158%
- activity at 250 µM ([1]; Rattus norvegicus, Hepatocyte, 1 h, DEM + 0.25 mM, 1 hr): 54.8%
- activity at 500 µM ([1]; Rattus norvegicus, Hepatocyte, 1 h, DEM + 0.50 mM, 1 hr): 74.2%
- activity at 1000 µM [1, 5]: 71%
- activity at 2500 µM ([1]; Rattus norvegicus, Hepatocyte, 1 h, DEM + 2.5 mM, 1 hr): 89%
- activity at 5000 µM [1, 5]: 92%
- activity at 250 µM ([1]; Rattus norvegicus, Hepatocyte, 1 h, no DEM, 0.25 mM, 1 hr): 134%
- activity at 500 µM ([1]; Rattus norvegicus, Hepatocyte, 1 h, no DEM, 0.50 mM, 1 hr): 155%
- activity at 2500 µM ([1]; Rattus norvegicus, Hepatocyte, 1 h, no DEM, 2.5 mM, 1 hr): 182%
- activity at 250 µM ([1]; Rattus norvegicus, Hepatocyte, 2 h, DEM + 0.25 mM, 2 hrs): 81.2%
- activity at 500 µM ([1]; Rattus norvegicus, Hepatocyte, 2 h, DEM + 0.50 mM, 2 hrs): 103%
- activity at 1000 µM [1, 6]: 96.7%
- activity at 2500 µM ([1]; Rattus norvegicus, Hepatocyte, 2 h, DEM + 2.5 mM, 2 hrs): 119%
- activity at 5000 µM [1, 6]: 119%
- activity at 250 µM ([1]; Rattus norvegicus, Hepatocyte, 2 h, no DEM, 0.25 mM, 2 hrs): 142%
- activity at 500 µM ([1]; Rattus norvegicus, Hepatocyte, 2 h, no DEM, 0.50 mM, 2 hrs): 159%
- activity at 2500 µM ([1]; Rattus norvegicus, Hepatocyte, 2 h, no DEM, 2.5 mM, 2 hrs): 191%
- activity at 250 µM ([1]; Rattus norvegicus, Hepatocyte, 4 h, DEM + 0.25 mM, 4 hrs): 83%
- activity at 500 µM ([1]; Rattus norvegicus, Hepatocyte, 4 h, DEM + 0.50 mM, 4 hrs): 138%
- activity at 1000 µM [1, 7]: 119%
- activity at 2500 µM ([1]; Rattus norvegicus, Hepatocyte, 4 h, DEM + 2.5 mM, 4 hrs): 173%
- activity at 5000 µM [1, 7]: 191%
- activity at 250 µM ([1]; Rattus norvegicus, Hepatocyte, 4 h, no DEM, 0.25 mM, 4 hrs): 146%
- activity at 500 µM ([1]; Rattus norvegicus, Hepatocyte, 4 h, no DEM, 0.50 mM, 4 hrs): 207%
- activity at 2500 µM ([1]; Rattus norvegicus, Hepatocyte, 4 h, no DEM, 2.5 mM, 4 hrs): 211%
- activation at 250 µM ([1]; Rattus norvegicus, Hepatocyte, DEM-pretreated hepatocytes, 0.25 mM, 4 hours, read-out: increase in GSH values): ~80%
- activation at 500 µM ([1]; Rattus norvegicus, Hepatocyte, DEM-pretreated hepatocytes, 0.5 mM, 4 hours, read-out: increase in GSH values): 130 to 140%
- activation at 1000 µM ([1]; Rattus norvegicus, Hepatocyte, DEM-pretreated hepatocytes, 1 mM, read-out: increase in the GSH content): ~120%
- restoring thiol groups and in particular GSH (in words) ([1]; in vitro): greatly effective in restoring thiol groups and in particular GSH
- permeability of the hepatocyte membrane (in words) ([1]; normal hepatocytes): clearly indicates the permeability of the hepatocyte membrane
- increase in basal GSH at 2.5 mM compared with 0.5 mM (in words) ([1]; normal hepatocytes, 4 hours): superimposable to that caused by concentrations five times lower (0.5 mM)
- increase in GSH basal values ([1]; normal hepatocytes, concentrations from 0.5 mM, after 4 hrs, in respect of controls): greater than 180%
- behavioural (torpor) and postural (ataxia) disorders (in words) (DCP toxicity in the rat): did not show any notable modification of said parameters
- death (in words) (DCP toxicity in the rat): no death occurred
- macroscopic examination of liver (in words) (DCP toxicity in the rat): showed liver parenchyma within standard limits
- coagulative disorders (in words) (DCP toxicity in the rat; merely qualitative examination): absent
- Mice with neoplasms, % [2, 8]: 50%
- Mice with neoplasms/group [2, 8]: 3/6
- development of tumours of the lungs (in words) ([2]; chronic treatment): significantly slowed down the development of tumours of the lungs; also recorded: its action seems most potent on the tumours directly induced by contact with a chemical carcinogen, such as urethane
